Each block holds one compound with its values, some of them ahead of it. Where a SMILES comes first, the peptide text is derived from it. [ ]: non-standard residue; d: D form.
Legend:
Mus musculus [1] = experiment: Antinociceptive activity in icv dosed C57B1/6J mouse assessed as tail withdrawal latency measured in every 10 mins for 1 hr by warm water tail withdrawal assay; format: functional, organism-based
[2] = molecular target: Kappa-type opioid receptor (Rattus norvegicus, UniProt P34975); experiment: Displacement of [3H]diprenorphine from rat cloned KOR expressed in CHO cells after 90 mins by scintillation counting analysis
Kappa-type opioid receptor (Rattus norvegicus, UniProt P34975), sequence (P34975 whole entry): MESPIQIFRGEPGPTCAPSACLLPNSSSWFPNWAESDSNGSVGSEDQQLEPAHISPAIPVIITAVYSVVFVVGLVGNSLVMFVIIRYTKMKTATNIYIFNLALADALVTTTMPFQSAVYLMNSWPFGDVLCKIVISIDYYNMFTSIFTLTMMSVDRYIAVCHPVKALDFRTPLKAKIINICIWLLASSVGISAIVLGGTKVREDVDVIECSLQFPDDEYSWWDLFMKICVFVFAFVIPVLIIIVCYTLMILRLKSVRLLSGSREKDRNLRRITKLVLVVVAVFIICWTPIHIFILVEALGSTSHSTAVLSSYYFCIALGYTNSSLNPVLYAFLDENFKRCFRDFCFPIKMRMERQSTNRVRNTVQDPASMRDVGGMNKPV

[3] = Displacement of DPDPE from DOR in guinea pig brain membrane fraction after 30 mins by scintillation counting analysis; format: cell membranes, Cavia porcellus
Rattus norvegicus [4] = experiment: In vivo receptor occupancy at MOR in po dosed Harlan Sprague-Dawley rat brain after 5.5 hrs by LC/MS/MS analysis; format: functional
Rattus norvegicus [5] = experiment: In vivo receptor occupancy at DOR in po dosed Harlan Sprague-Dawley rat brain after 5.5 hrs by LC/MS/MS analysis; format: functional
[6] = molecular target: Delta-type opioid receptor (Homo sapiens, UniProt P41143); experiment: Antagonist activity at DOR (unknown origin) by [35S]GTPgammaS assay; format: functional
Delta-type opioid receptor, sequence (P41143 whole entry): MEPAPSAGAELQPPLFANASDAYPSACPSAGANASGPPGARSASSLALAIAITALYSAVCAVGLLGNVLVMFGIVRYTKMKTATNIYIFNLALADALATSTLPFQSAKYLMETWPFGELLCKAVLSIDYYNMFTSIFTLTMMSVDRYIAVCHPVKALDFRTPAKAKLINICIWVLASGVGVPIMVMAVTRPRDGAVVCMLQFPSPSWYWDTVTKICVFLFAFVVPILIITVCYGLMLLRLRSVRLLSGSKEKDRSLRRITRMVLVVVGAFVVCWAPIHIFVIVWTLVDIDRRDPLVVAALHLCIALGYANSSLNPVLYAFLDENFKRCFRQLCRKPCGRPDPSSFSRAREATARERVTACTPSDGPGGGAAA

[7] = molecular target: T1, Kappa-type opioid receptor (Homo sapiens, UniProt P41145); experiment: Binding affinity to KOR (unknown origin)
T1 sequence (P41145 whole entry): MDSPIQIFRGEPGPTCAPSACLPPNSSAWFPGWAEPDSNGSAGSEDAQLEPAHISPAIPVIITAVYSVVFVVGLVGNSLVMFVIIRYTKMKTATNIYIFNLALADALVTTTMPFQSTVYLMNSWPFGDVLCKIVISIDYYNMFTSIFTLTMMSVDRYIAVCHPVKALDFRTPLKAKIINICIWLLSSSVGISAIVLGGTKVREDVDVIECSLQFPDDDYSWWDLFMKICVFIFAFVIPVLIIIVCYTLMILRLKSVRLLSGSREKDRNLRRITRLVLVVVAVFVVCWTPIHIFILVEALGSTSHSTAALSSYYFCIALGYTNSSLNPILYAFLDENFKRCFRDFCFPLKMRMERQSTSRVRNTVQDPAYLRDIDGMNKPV

[8] = molecular target: T1, Kappa-type opioid receptor; experiment: Antagonist activity at KOR (unknown origin) by [35S]GTPgammaS binding assay
Mu-type opioid receptor = Mu-type opioid receptor (Homo sapiens, UniProt P35372); experiment: Antagonist activity at MOR (unknown origin) by [35S]GTPgammaS binding assay
Mu-type opioid receptor, sequence (P35372 whole entry): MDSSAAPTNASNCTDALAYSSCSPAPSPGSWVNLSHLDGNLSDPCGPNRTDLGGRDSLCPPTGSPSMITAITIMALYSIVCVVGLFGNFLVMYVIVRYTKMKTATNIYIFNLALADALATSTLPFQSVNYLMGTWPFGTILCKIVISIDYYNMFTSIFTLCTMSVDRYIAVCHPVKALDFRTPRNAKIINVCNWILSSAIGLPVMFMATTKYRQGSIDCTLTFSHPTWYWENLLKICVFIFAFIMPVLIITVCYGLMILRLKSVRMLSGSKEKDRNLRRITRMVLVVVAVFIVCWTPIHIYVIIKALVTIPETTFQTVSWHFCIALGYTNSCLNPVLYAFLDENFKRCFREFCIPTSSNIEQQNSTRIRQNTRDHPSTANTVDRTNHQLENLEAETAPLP

Mus musculus [9] = experiment: Antinociceptive activity in C57B1/6J mouse at 10 nmol, icv administered 80 mins prior to U50488 addition by warm water tail withdrawal assay; format: functional
[10] = molecular target: T1, Kappa-type opioid receptor; experiment: Inhibition of dynorphin A (1-13) NH2 binding to KOR (unknown origin) by adenylyl cyclase assay; format: functional

SMILES: O=C1N[C@@H](Cc2ccccc2)C(=O)N2CCC[C@@H]2C(=O)N[C@@H](Cc2ccccc2)C(=O)N[C@H]1Cc1c[nH]c2ccccc12 (cyclo(FWF[dP]))
EC50 (Mus musculus [1]): 3.71 nmol
Ki [2]: 0.0354 µM
IC50 [3]: 2.6 µM

SMILES: Cc1cc(C)cc([C@@H]2CCCN2Cc2ccc(Oc3ccc(C(N)=O)cc3F)cc2)c1 [ATICAPRANT]
ED50 (Rattus norvegicus [4]): > 30 mg/kg
ED50 (Rattus norvegicus [5]): > 30 mg/kg

IC50 [6]: > 30 µM
Ki [7]: 0.0005 µM
IC50 [8]: 0.077 µM
IC50 (Mu-type opioid receptor): > 30 µM
SMILES: O=C(Nc1cccc(NC(=O)c2cccc(N3CCCCC3)c2)c1)c1cccc(OC2CCN(CC3CC3)CC2)c1

SMILES: O=C1N[C@H](Cc2c[nH]c3ccccc23)C(=O)N[C@@H](Cc2ccccc2)C(=O)N2CCC[C@@H]2C(=O)N[C@H]1Cc1ccccc1 (cyclo(F[dP]F[dW]))
Activity (Mus musculus [9]): 10%
Ki [2]: 0.0306 µM

SMILES: CC[C@H](C)[C@@H]1NC(=O)[C@H](CCCNC(=N)N)NC(=O)[C@@H](NC(=O)[C@H](Cc2ccccc2)NC(=O)CNC(=O)CNC(=O)[C@H](Cc2ccc(O)cc2)NCc2ccccc2)CC(=O)NC[C@@H](C(=O)N[C@@H](CCCNC(=N)N)C(=O)N2CCC[C@H]2C(=O)N[C@@H](CCCCN)C(N)=O)NC1=O
Kb [10]: 0.084 µM

Reference: ChEMBL document CHEMBL2321730, “Development of κ opioid receptor antagonists” (J Med Chem, 2013)
